Data from patent US11850237B2, “Compounds and methods for treating influenza” (priority 2009, dated 2023).
In brackets after ≈: the same amount, converted by molar mass. Where two headings read alike, the source gives them in different places.

Assays:
[1] = test system: Respiratory syncytial virus; assay: Activity against other respiratory viruses: Respiratory syncytial virus; format: cell-based; conditions: human respiratory syncytial virus
influenza = assay: Clinical trials, treatment of influenza; format: in vivo, human; conditions: orally 300 mg or 600 mg twice daily for 5 days
Protocol: Low dose administration of thiazolides such as NTZ to treat virus infection. NTZ can be administered orally at a dose of 300 mg or 600 mg twice daily for 5 days as a treatment of influenza. […] Preferably, the dosage of nitazoxanide is 300 mg twice daily for 5 days, which is less than the dosage of NTZ needed to treat intestinal infections, thereby enabling a reduction of side effects associated with higher dosages. Thiazolides can also be administered as a modified release bi-layer tablet. As such, thiazolides can be administered in 100 mg, 200 mg, 300 mg, 400 mg, 500 mg or 600 mg doses twice daily for 5 days to treat virus infection.

Rhinovirus = assay: Activity against other respiratory viruses: Rhinovirus; format: cell-based, human rhinovirus; conditions: Enterovirus
[2] = test system: H1N1 A/PR/8/34 (PR8) virus; assay: microbe, parasite or virus in culture; format: cell-based, influenza A virus; conditions: Influenza A virus, MDCK, 24 h
H1N1 A/PR/8/34 (PR8) = assay: microbe, parasite or virus in culture; format: cell-based, influenza A virus
Parainfluenza = assay: Activity against other respiratory viruses: Parainfluenza; format: cell-based
[3] = Toxicity / cell viability by MTT in uninfected MDCK cells; format: cell-based, canine; conditions: dog, uninfected MDCK cells; uninfected cells
Protocol: (§1) Cell culture, treatment and transfection-Madin-Darby canine kidney (MDCK) cells, and human A549 alveolar type II-like epithelial, Jurkat Tlymphoblastoid and U397 monocytic leukemia cells were grown at 37° C. in a 5% CO2 atmosphere in RPMI 1640 (Invitrogen), supplemented with 10% fetal calf serum (FCS), 2 mM glutamine and antibiotics. Test compounds were added immediately after 1-hour adsorption period, and kept in the culture medium for the entire time of the experiment, unless differently specified. […] Cell viability was determined by the 3-(4,5-dimethylthiazol-2-yl)-2,5-diphenyltetrazolium bromide (MTT) to MTT formazan conversion assay (Sigma-Aldrich) as described previously. Microscopical examination of mock-infected or virus-infected cells was performed using a Leica DM-IL microscope and images were captured on a Leica DC 300 camera using Leica Image-Manager500 software.

MDCK cells = assay: as above; format: cell-based, canine; conditions: MDCK cells, MTT
Protocol: as §1

[4] = Cytotoxicity (CC50) in the other respiratory virus assays
[5] = Double-blind placebo controlled trials in influenza-like illness; format: in vivo, human
Protocol: Evaluation of the effect of twice daily nitazoxanide for 5 days on the duration of symptoms in pediatric patients and adults with influenza-like illnesses was conducted. Two double-blind placebo controlled trials were conducted. Children 12 months-11 years of age were given NTZ suspension (n=100, 50 per group) and Patients ≥12 years of age were given NTZ 500 mg tablets (n=86, 43 per group). Single center trials were conducted. Studies were based on TAMIFLU® trials. The trials followed specific Inclusion/exclusion criteria. Inclusion required children age 1-11 years of patients ≥12 years of age with a fever >100° F. with ≥1 respiratory symptom (including cough, nasal discharge, sneezing, sore throat, etc.) and/or with ≥1 constitutional symptom (myalgia, malaise, fatigue, headache, chills/sweat, etc.). Major exclusions included symptom duration ≥72 hours, pregnancy or breastfeeding, concurrent antibiotics/antiviral medication, or a history of asthma or other pulmonary disease.
Patients were randomized to receive NTZ or placebo b.i.d. for 5 days. Nasopharyngeal swab collected at baseline for rapid direct immunofluorescence assay (SimulFluor respiratory Screen) for 7 viruses (RSV, Influenza A & B, Parainfluenza 1-3, and Adenovirus). Symptoms recorded in a daily diary by the patient (or parent) with each symptom graded on a scale of 0 to 3: absent, mild, moderate, severe. Tissue was stored in a ziplock plastic bag and collected daily by study personnel for weighing. A follow up physical examination was conducted on day 7. The primary endpoint was the time from baseline to each symptom returning to absent or mild (<2). Secondary endpoints include antibiotic use, day 7 respiratory symptoms, daily tissue/mucus weight.

[6] = test system: H5N9 low-pathogenicity avian strain A/Ck/It/9097/97 (A/Ck); assay: microbe, parasite or virus in culture; format: cell-based; conditions: Influenza A virus, H5N9, MDCK, 24 h, read-out: EC50, inhibition of virus replication
[7] = test system: H1N1 A/PR/8/34 (PR8) virus; assay: microbe, parasite or virus in culture; format: cell-based, influenza A virus; conditions: for EC50: Influenza A virus, MDCK, 24 h; for PR8 Yield: no zanamivir (Control)
Adenovirus = assay: Activity against other respiratory viruses: Adenovirus; format: cell-based; conditions: unidentified adenovirus
[8] = test system: viral hemagglutinin (HA0); format: cell-based, influenza A virus; conditions: WSN in A549 cells, A/Ck and PR8 in MDCK cells
Coronavirus = assay: Activity against other respiratory viruses: Coronavirus; format: cell-based
A/WSN/33 (WSN) = assay: microbe, parasite or virus in culture; format: cell-based; conditions: Influenza A virus, MDCK, 24 h, read-out: EC50, inhibition of virus replication

CC(=O)Oc1ccccc1C(=O)Nc1ncc([N+](=O)[O-])s1 [Compound 1, nitazoxanide]
EC50 [1]: 0.5 µg/mL (≈ 1.63 µM) | treatment of influenza in clinical trials (influenza): has the ability to treat influenza | EC50 (Rhinovirus): > 10 µg/mL | EC50 ([2]; read-out: EC50 of NTZ in the experiments with oseltamivir): 1 µg/mL | EC50 ([2]; read-out: EC50 of NTZ in the experiments with oseltamivir (molar equivalent)): 3.3 µM | EC50 (H1N1 A/PR/8/34 (PR8); Influenza A virus, MDCK, 24 h, read-out: EC50, inhibition of virus replication): 1 µg/mL | EC50 (H1N1 A/PR/8/34 (PR8); Influenza A virus, MDCK, PR8 virus, separate studies, read-out: EC50 (molar equivalent)): 3.3 µM | EC50 (H1N1 A/PR/8/34 (PR8); Influenza A virus, PR8, MDCK cells, read-out: Virus Yield EC50): 1 µg/mL | EC90 (H1N1 A/PR/8/34 (PR8); Influenza A virus, PR8, MDCK cells, read-out: Virus Yield EC90): 7 µg/mL (≈ 22.8 µM) | antiviral activity against PR8, overall rating (H1N1 A/PR/8/34 (PR8); PR8 influenza A virus, Table 1): potent and selective | EC50 (Parainfluenza): 0.5 µg/mL (≈ 1.63 µM) | CC50 [3]: > 50 µg/mL | Toxicity LD50 (MTT) (MDCK cells): >50 µg/mL | CC50 [4]: > 50 µg/mL | CC50 ([4]; Adenovirus line of Table 3): >50 µg/mL | CC50 ([4]; Coronavirus line of Table 3): >50 µg/mL | CC50 ([4]; Respiratory syncytial virus line of Table 3): >50 µg/mL | CC50 ([4]; Rhinovirus line of Table 3): >50 µg/mL | respiratory symptoms, Day 7 Physical Exam ([5]; influenza-like illness, FIG. 13): reduces respiratory symptoms | resolution of symptoms associated with influenza-like illness ([5]; subjects not positive for Adenovirus, RSV, Influenza A, Parainfluenza 1, FIG. 12): can resolve symptoms | treatment of patients with influenza like illness ([5]; twice daily for 5 days vs placebo, patients mostly negative for Adenovirus, RSV, Influenza A, Parainfluenza 1): has the ability to treat patients | EC50 [6]: 1 µg/mL (≈ 3.25 µM) | EC50 ([7]; read-out: EC50 of NTZ in the experiments with zanamivir): 0.66 µg/mL | EC50 ([7]; read-out: EC50 of NTZ in the experiments with zanamivir (molar equivalent)): ~2200 nM | PR8 Yield ([7]; Nitazoxanide 0.1 μg/ml): 48 HAU/ml | PR8 Yield ([7]; Nitazoxanide 1 μg/ml): 16 HAU/ml | EC50 (Adenovirus): 0.2 µg/mL (≈ 0.651 µM) | HA0 maturation in other host cells and strains [8]: caused similar alterations | EC50 (Coronavirus): 1 µg/mL (≈ 3.25 µM) | EC50 (A/WSN/33 (WSN)): 0.5 µg/mL (≈ 1.63 µM)
